This passage reports inhibition results from patent US20020143018A1 (priority 2000, published 2002).

The test system of this experiment is Sarcocystis neurona strain SN3. The experiment is described as follows: Microtiter Monolayer Disruption Assay (MMDA), inhibition of merozoite-induced cell destruction (CPE). The format is cell-based. The settings on record: S. neurona merozoites 50,000/well on BT cell monolayers, compound added 2 hours after infection, crystal violet readout, read-out: Percent Inhibition of Cell Destruction. As to the method:
In order to determine the scope of protection provided by praziquantel, in vitro testing was conducted. Sarcocystis neurona was evaluated for its sensitivity to this compound. Strain SN3 of Sarcocystis neurona was used.
Bovine turbinate (BT) cells were used for all in vitro tests. Cells were grown to confluency in 25 cm^2 flasks in RMPI 1640 media supplemented with 10% v/v fetal bovine serum (FBS), 100 Units of penicillin (g/mL), […] and 5×10^−2 mM of 2-mercaptoethanol. After cell confluence was obtained, cells were maintained in the same media with reduced FBS (2% v/v). Cell cultures were incubated at 37 C. in a humidified atmosphere containing 5% carbon dioxide and 95% air.
For growth of the parasite, BT cell monolayers were infected with parasites and examined with an inverted microscope for the development of lesions (cytopathic effect, “CPE”) or the presence of many extracellular merozoites. Once lesions were observed, or many extracellular parasites were present, the monolayer was scraped with the tip of a 5 mL pipette and 1 to 3 drops of the merozoite-containing fluid was transferred to two flasks of fresh BT cells. […]
This assay was used to determine if the parasites or compound were toxic for BT cells. […] Each well was visually monitored daily and the assay was stopped when 90-100% of the untreated merozoite infected cells had lysed (90-100% CPE). […]

The structures appear in SMILES notation.

Regarding `O=C(C1CCCCC1)N1CC(=O)N2CCc3ccccc3C2C1` (centres unmarked) [Praziquantel, praziquantel], for the setting “10 μg/mL”, the inhibition (as a rule, how much of the control response was suppressed) at 10 µg/mL came out at 51%. Moreover, under “20 μg/mL”, the inhibition at 20 µg/mL was 69%.
